Experiment [1] concerns the target T1, human CCK-B/gastrin receptor (wild-type) (Homo sapiens, UniProt P32239).
T1 construct: expressed in transfected cells; host or cells: COS-7
T1 sequence (P32239 1-447): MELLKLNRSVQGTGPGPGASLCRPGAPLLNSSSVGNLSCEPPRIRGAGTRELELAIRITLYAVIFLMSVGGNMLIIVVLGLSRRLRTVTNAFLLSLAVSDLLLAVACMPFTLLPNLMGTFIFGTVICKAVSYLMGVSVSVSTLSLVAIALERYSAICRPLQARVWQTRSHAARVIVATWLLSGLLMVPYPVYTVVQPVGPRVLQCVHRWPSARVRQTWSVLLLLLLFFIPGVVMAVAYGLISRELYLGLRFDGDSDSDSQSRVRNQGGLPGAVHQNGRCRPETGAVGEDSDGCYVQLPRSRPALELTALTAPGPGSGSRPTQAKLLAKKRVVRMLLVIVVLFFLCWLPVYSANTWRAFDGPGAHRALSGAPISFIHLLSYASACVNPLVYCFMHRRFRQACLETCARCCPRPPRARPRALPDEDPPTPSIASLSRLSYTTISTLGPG
Kind of experiment: 125I-CCK-8 competition binding, COS-7 cells expressing wild-type receptor. Conditions: for Ratio (Wild-type/Mutant) of Ki: binding affinities; for Ki: wild-type receptor, read-out: Wild-type receptor Ki(nM), 125I CCK-8 binding affinity. The procedure: (§1) The binding of a ligand to a CCK receptor, e.g., the CCK-A or the CCK-B/gastrin receptor, can be measured according to the following example. In this example, the binding affinity of a ligand to the human CCK-B/gastrin receptor is measured.
Twenty-four hours after transfection cells were split into 24-well dishes (2×10^4 cells/well) (Costar). After an additional 24 hours, competition binding experiments were performed in Hank's buffer supplemented with 25 mM phenylmethylsulfonyl fluoride (PMSF). […] Equilibrium binding occurred after incubation for 80 min. at 37° C. Cell monolayers were then washed three times, hydrolyzed in 1 N NaOH, and the amount of radioactivity to the receptor was quantified.
(§2) The competition data were analyzed using computer software which is specifically designed for the purpose of radioligand binding assays (Inplot 4.0, GraphPad, San Diego, Calif.).

Experiment [2] has as its target T2, human CCK-B/gastrin receptor 325L→E mutant (Homo sapiens, UniProt P32239, L325E).
T2 construct: expressed in transfected cells; host or cells: COS-7
T2 sequence (P32239 1-447 L325E): T1 sequence (P32239 1-447) with L325E
In words: 125I-CCK-8 competition binding, COS-7 cells expressing constitutively active mutant. Conditions: read-out: 325L→E Mutant Ki(nM), 125I CCK-8 binding affinity. As to the method:
as §1
Twenty-four hours after transfection cells were split into 24-well dishes (2×10^4 cells/well) (Costar). After an additional 24 hours, competition binding experiments were performed in Hank's buffer supplemented with 25 mM phenylmethylsulfonyl fluoride (PMSF). […] Equilibrium binding occurred after incubation for 80 min. at 37° C. Cell monolayers were then washed three times, hydrolyzed in 1 N NaOH, and the amount of radioactivity to the receptor was quantified. […] All binding experiments were repeated three to five times.
as §2

In experiment [3] the target is T2, human CCK-B/gastrin receptor 325L→E mutant. In words: Total inositol phosphate production, COS-7 cells expressing constitutively active mutant. Type of experiment: cell-based. The note with it: for intrinsic activity / functional classification: constitutively active 325L→E mutant; for IC50: 325L→E mutant, 95% C.I. in brackets, read-out: 325L→E Mutant IC50(nM) 95% C.I., signaling potency.

Experiment [4] concerns the target T1, human CCK-B/gastrin receptor (wild-type). Kind of experiment: Total inositol phosphate production, COS-7 cells expressing wild-type receptor. It counts as cell-based. Conditions: for IC50: 95% C.I. in brackets, read-out: Wild-type receptor IC50(nM) 95% C.I., signaling potency.
For experiment [5], the target named is T3, mutant human CCK-A receptor pMHA35 (Homo sapiens, UniProt P32238, E138Q).
T3 construct: expressed in transfected cells; host or cells: COS-7 (inferred from the general inositol phosphate method)
T3 sequence (P32238 1-428 E138Q): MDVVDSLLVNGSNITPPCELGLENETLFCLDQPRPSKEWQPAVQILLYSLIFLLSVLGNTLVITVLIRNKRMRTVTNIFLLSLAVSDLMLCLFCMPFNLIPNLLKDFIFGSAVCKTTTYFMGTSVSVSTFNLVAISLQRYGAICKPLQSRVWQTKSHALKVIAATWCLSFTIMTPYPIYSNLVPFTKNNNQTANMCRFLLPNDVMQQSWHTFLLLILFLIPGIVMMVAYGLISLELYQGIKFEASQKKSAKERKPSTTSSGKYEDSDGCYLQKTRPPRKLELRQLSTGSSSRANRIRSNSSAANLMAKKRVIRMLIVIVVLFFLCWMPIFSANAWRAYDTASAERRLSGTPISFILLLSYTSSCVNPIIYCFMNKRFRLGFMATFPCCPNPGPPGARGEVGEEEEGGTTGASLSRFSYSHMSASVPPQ
Kind of experiment: Intrinsic activity at mutant CCK-A receptor pMHA35 (138-ERY-140 to QRY). Type of experiment: cell-based. Conditions: basal signaling not increased. The source says: An example is given of a mutant human CCK-A receptor that enhances the intrinsic activity of the partial ‘peptoid’ agonist PD 135,158, yet causes no apparent increase in agonist-independent basal receptor activity, is the mutant CCK-A receptor pMHA35. pMHA35 was made by replacing amino acids 138-ERY-140 of the human wild-type CCK-A receptor with QRY in the vector pcDNAI. (See FIG. 2 for an illustration of the wild-type CCK-A receptor amino acid sequence.)
This method, based on alignment, was employed to construct a CCK-A mutant receptor. A multiple alignment map was made which included the human and rat CCK-A sequences, the mastomys, rat, human, and canine CCK-B/gastrin receptor, and a Xenopus CCK-A/CCK-B intermediate receptor (CCK-XL; FIG. 2). Based on this map, conserved amino acids 138-ERY-140 of the CCK-A receptor were replaced with amino acids QRY, based on a known constitutively active rhodopsin mutant with enhanced transducin activation (Arnis et al., J. Biol. Chem., 269:23879-81, 1994). The altered amino acid residues are positioned in transmembrane domain III and flank the second intracellular loop.

The target in the next experiment is Xenopus CCK receptor (Xenopus laevis, UniProt P70031). Conditions: single experiment. The procedure:
COS-7 cells transfected with receptor cDNA-pcDNAI were cultured in inositol-free, serum-free Dulbecco's modified Eagle's medium (DMEM, GIBCO), supplemented with 3 μCi/ml ^3 H-myo-inositol (NEN, 45-80 Ci/mmol), for 18 hours prior to analysis. The cells were then washed twice with DMEM/10 mM LiCl2 and twice with phosphate-buffered saline/10 mM LiCl2. After stimulation with putative agonists in phosphate-buffered saline 10/mM LiCl2 for 30 minutes at 37° C., cells were scraped in ice-cold methanol. […] The upper phase was analyzed for inositol phosphates by strong anion exchange chromatography, using Dowex 1-X8 columns (BIORAD) and differential elution with water/60 mM ammonium fornate/2 M ammonium fornate. Eluted radioactivity was measured by liquid scintillation counting, and inositol phosphate content was expressed as a percentage of total ^3H-radioactivity applied to the columns.
In FIG. 11, basal levels of inositol phosphate production were measured for human CCK-A hCCK-A), human CCK-B (hCCK-B), dog CCK-B (dCCK-B), mouse CCK-B (mCCK-B), and the mastomys CCK receptor (FIG. 11, part A), and expressed relative to the basal level of hCCK-B.
Single experiments were also performed for the rat CCK-B/gastrin receptor and for the related Xenopus CCK receptor (Table 2).

Experiment [6] concerns the target human wild-type CCK-B receptor (Homo sapiens, UniProt P32239). Conditions: 10^-7 M. The procedure: Measurement of [Ca^2+]: Forty-eight hours after transfection with hCCKB-pcDNAI, COS-7 cells were loaded with the Ca^2+ fluorophore fura-2 in modified Krebs-Ringer bicarbonate buffer. […] Extracellular calcium can be chelated with EGTA (2.5 mM) to confirm that a gastrin-induced increase in [Ca^2+] originates primarily from intracellular [Ca^2+] pools.

For another experiment, the system named is rat CCK-A. Conditions: single experiment.

Where a chain is given by its changes, count along the chain named. “Also recorded” adds a separate entry of the source.

Chain of Xenopus CCK receptor (P70031 whole entry): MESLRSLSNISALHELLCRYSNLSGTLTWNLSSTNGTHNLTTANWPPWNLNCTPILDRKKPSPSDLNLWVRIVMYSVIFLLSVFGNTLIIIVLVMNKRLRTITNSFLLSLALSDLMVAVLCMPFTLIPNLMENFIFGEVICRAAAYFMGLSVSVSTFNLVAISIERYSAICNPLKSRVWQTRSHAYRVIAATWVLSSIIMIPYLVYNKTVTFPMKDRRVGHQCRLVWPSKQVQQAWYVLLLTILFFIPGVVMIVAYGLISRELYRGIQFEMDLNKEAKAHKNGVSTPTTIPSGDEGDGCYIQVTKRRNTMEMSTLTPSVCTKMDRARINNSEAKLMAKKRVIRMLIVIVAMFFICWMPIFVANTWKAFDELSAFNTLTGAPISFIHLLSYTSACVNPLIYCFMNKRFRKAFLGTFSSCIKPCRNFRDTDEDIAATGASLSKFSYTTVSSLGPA

As for “azabicyclo[3.2.2]nonane benzodiazepine [L-740,093 R]”, in experiment [1], the “Ratio (Wild-type/Mutant) of Ki” value was 1.06 and the Ki came out at 0.19 ± 0.02 nM. For the same compound, in experiment [2], the Ki was determined as 0.18 ± 0.04 nM. For the same compound, in experiment [3], the “intrinsic activity / functional classification” value is reported as “reduces the basal activity of the constitutively active receptor almost to wild-type levels”.

On to `CC1(C)[C@H]2CC[C@@]1(C)[C@H](OC(=O)N[C@](C)(Cc1c[nH]c3ccccc13)C(=O)NC[C@H](NC(=O)CCC(=O)O)c1ccccc1)C2` [PD 135,158], for which, in experiment [1], the “Ratio (Wild-type/Mutant) of Ki” value was 2.23 and the Ki worked out at 2.25 ± 0.61 nM. The Ki in experiment [2] stood at 1.01 ± 0.19 nM. Besides, the “Ratio (Wild-type/Mutant) of signaling potencies” value in experiment [4] was 1.04. Also, in experiment [4] (wild-type receptor), the “intrinsic activity / functional classification” value is reported as “partial agonists” and the IC50 turned out to be 1.05 nM. Besides, in experiment [3], the IC50 is 1.01 nM and the “intrinsic activity / functional classification” value is “almost full agonists”. For the same compound, the “intrinsic activity at mutant versus wild-type CCK-A receptor” value in experiment [5] is “significantly increased”.

Take `Cc1cccc(NC(=O)N[C@@H]2N=C(c3ccccc3)c3ccccc3N(C)C2=O)c1` [L-365,260]: the “intrinsic activity / functional classification” value in experiment [4] (wild-type receptor) is listed as “barely detectable, yet significant, increase in inositol phosphate production”. Further, the “efficacy compared to the full agonist CCK-8s (inositol phosphate)” value in experiment [3] (325L→E constitutively active mutant) is recorded as 62%.

Regarding `Cc1cccc(NC(=O)N[C@@H]2N=C(c3ccccc3)c3ccccc3N(CC(=O)c3ccccc3C)C2=O)c1` [YM022], the “Ratio (Wild-type/Mutant) of Ki” value in experiment [1] worked out at 0.88. The Ki in experiment [1] worked out at 0.07 ± 0.01 nM; in experiment [2], 0.08 ± 0.01 nM. The “intrinsic activity / functional classification” value in experiment [4] (wild-type receptor) was “almost no intrinsic activity”; in experiment [3], “almost no intrinsic activity; also recorded: weak inverse agonist”. For the same compound, the “pA2, block of CCK-8s induced inositol phosphate production” value is recorded as 9.78 in experiment [4] (wild-type receptor, agonist CCK-8s) and 9.37 in experiment [3] (constitutively active receptor, agonist CCK-8s). For the same compound, in experiment [3] (constitutively active receptor, agonist L-740,093 S (FIG. 4)), the “pA2, block of L-740,093 S induced inositol phosphate production” value is given as 9.54.

In the case of CCK-8s, the “CCK-8s stimulated (% human basal) inositol phosphate” value is 442 % human basal on Xenopus CCK receptor and 684 % human basal in the experiment on rat CCK-A. Moreover, in experiment [6], the “change in free cytosolic calcium [Ca2+]i” value is reported as “marked increase in free cytosolic calcium”.

As to “azabicyclo[3.2.2]nonane benzodiazepine [L-740,093 S]”, in experiment [1], the “Ratio (Wild-type/Mutant) of Ki” value was determined as 1.22. The Ki is 19.5 ± 1.5 nM in experiment [1] and 16 ± 1.4 nM in experiment [2]. Moreover, in experiment [4] (human wild-type receptor), the “efficacy compared with CCK-8s (inositol phosphate)” value is 25%. For the same compound, the “intrinsic activity / functional classification” value in experiment [3] is reported as “almost a full agonist”.

For `C[C@](Cc1c[nH]c2ccccc12)(NC(=O)OC1C2CC3CC(C2)CC1C3)C(=O)NC[C@H](NC(=O)/C=C/C(=O)O)c1ccccc1` (stereo partly drawn) [PD 136,450], in experiment [1], the “Ratio (Wild-type/Mutant) of Ki” value came to 1.68 and the Ki amounted to 0.99 ± 0.1 nM. Besides, the Ki in experiment [2] came to 0.59 ± 0.12 nM. Moreover, the “Ratio (Wild-type/Mutant) of signaling potencies” value in experiment [4] worked out at 0.62. Besides, in experiment [4] (wild-type receptor), the “intrinsic activity / functional classification” value was “partial agonists” and the IC50 came to 0.36 nM. Moreover, in experiment [3], the IC50 worked out at 0.58 nM and the “intrinsic activity / functional classification” value was “almost full agonists”.

Source of the values: patent US6376198B1, “Assay for non-peptide agonists to peptide hormone receptors” (New England Medical Center Hospitals, Inc., priority 1995, dated 2002).
